# Experimental data from the supplement of paper PMC10307832.
# Compound: Cn1nnc2c(C(N)=O)ncn2c1=O [Temozolomide] + CC(C)C[C@H](NC(=O)[C@H](Cc1ccccc1)NC(=O)c1cnccn1)B(O)O [Bortezomib] (partner 0.002 µM)
# Experiment: relative viability (nuclei count vs DMSO), 5 days (fraction); higher = more cells survive
# Conditions: first compound 0.2 µM
# Procedure, shortened: (§1)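 Cells from lung cancer lines were seeded into 1536-well plates and, one day later, dosed by pin tool. Treatments were either a single drug or a fixed dose of an anchor drug with five library-drug doses (not always all listed) in √10 steps. After 5 days, nuclei were stained in a one-step fixation (final 0.05% Triton X-100, 1% formaldehyde, 1 ug/ml Hoechst) and counted on 4× images, and relative viability is the treated-to-vehicle nuclei ratio, as the median of duplicate plates.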
row,Cell Line,relative viability
1,201T,1.15
2,A-427,1
3,ABC-1,0.351
4,BEN,0.965
5,COR-L23,1.15
6,COR-L 105,0.646
7,Calu-6,1.11
8,ChaGo-K-1,1.17
9,EBC-1,0.601
10,EKVX,0.991
11,EMC-BAC-2,0.977
12,EPLC-272H,1.02
13,HARA,1.26
14,HCC-15,1.02
15,HCC-44,0.938
16,HCC-366,1.07
17,HCC-827,1.2
18,HOP-62,0.801
19,IA-LM,0.794
20,LC-2-ad,1.17
21,LCLC-97TM1,1.48
22,LCLC-103H,1.13
23,LOU-NH91,0.487
24,NCI-H727,0.884
25,NCI-H1299,1.07
26,NCI-H1563,0.91
27,NCI-H1792,0.969

# Same assay, conditions: first compound 0.6325 µM
row,Cell Line,relative viability
1,201T,1.08
2,A-427,0.934
3,ABC-1,0.274
4,BEN,0.77
5,CAL-12T,0.964
6,COR-L23,1.12
7,COR-L 105,0.683
8,Calu-6,0.866
9,ChaGo-K-1,0.955
10,EBC-1,0.577
11,EKVX,1.1
12,EMC-BAC-2,1.13
13,EPLC-272H,1.05
14,H3255,0.755
15,HARA,1.16
16,HCC-15,1.06
17,HCC-44,0.855
18,HCC-78,0.524
19,HCC-366,1.07
20,HCC-827,1.1
21,HOP-62,0.88
22,IA-LM,0.988
23,LC-2-ad,0.984
24,LCLC-97TM1,0.594
25,LCLC-103H,1.09
26,LOU-NH91,0.514
27,NCI-H727,0.903
28,NCI-H1299,1.06
29,NCI-H1563,0.862
30,NCI-H1792,0.988

# Same assay, conditions: first compound 2 µM
row,Cell Line,relative viability
1,201T,1.08
2,A-427,0.993
3,ABC-1,0.383
4,BEN,0.911
5,CAL-12T,0.945
6,COR-L23,1.08
7,COR-L 105,1.01
8,Calu-6,1.25
9,ChaGo-K-1,1.21
10,EBC-1,0.549
11,EKVX,1.06
12,EMC-BAC-2,1.02
13,EPLC-272H,0.91
14,H3255,0.849
15,HARA,1.24
16,HCC-15,1.05
17,HCC-44,0.869
18,HCC-78,0.537
19,HCC-366,1.1
20,HCC-827,1.02
21,HOP-62,0.911
22,IA-LM,1.04
23,LC-2-ad,1.02
24,LCLC-97TM1,0.749
25,LCLC-103H,1.04
26,LOU-NH91,0.565
27,NCI-H727,1.09
28,NCI-H1299,1.04
29,NCI-H1563,0.911
30,NCI-H1792,1.01

# Same assay, conditions: first compound 6.325 µM
row,Cell Line,relative viability
1,201T,1.07
2,A-427,0.87
3,ABC-1,0.315
4,BEN,0.577
5,CAL-12T,1.04
6,COR-L23,1.06
7,COR-L 105,0.756
8,Calu-6,0.955
9,ChaGo-K-1,0.967
10,EBC-1,0.544
11,EKVX,0.996
12,EMC-BAC-2,1.01
13,EPLC-272H,0.832
14,H3255,0.824
15,HARA,1.14
16,HCC-15,0.975
17,HCC-44,0.827
18,HCC-78,0.515
19,HCC-366,1.08
20,HCC-827,1.05
21,HOP-62,0.59
22,IA-LM,0.742
23,LC-2-ad,0.945
24,LCLC-97TM1,0.68
25,LCLC-103H,1.08
26,LOU-NH91,0.543
27,NCI-H727,0.768
28,NCI-H1299,1.02
29,NCI-H1563,0.878
30,NCI-H1792,0.641

# Same assay, conditions: first compound 20 µM
row,Cell Line,relative viability
1,201T,1.08
2,A-427,0.616
3,ABC-1,0.256
4,BEN,0.588
5,CAL-12T,0.967
6,COR-L23,0.963
7,COR-L 105,0.32
8,Calu-6,1.02
9,ChaGo-K-1,0.985
10,EBC-1,0.575
11,EKVX,0.884
12,EMC-BAC-2,1.04
13,EPLC-272H,0.805
14,H3255,0.213
15,HARA,1.05
16,HCC-15,1.1
17,HCC-44,0.988
18,HCC-78,0.567
19,HCC-366,1.06
20,HCC-827,0.32
21,HOP-62,0.932
22,IA-LM,0.945
23,LC-2-ad,0.945
24,LCLC-97TM1,0.687
25,LCLC-103H,1.01
26,LOU-NH91,0.456
27,NCI-H727,0.803
28,NCI-H1299,1.02
29,NCI-H1563,0.833
30,NCI-H1792,0.953

# Compound: C[C@@H](C(=O)N[C@@H](C1CCCCC1)C(=O)N2CCC[C@H]2C(=O)N[C@@H]3[C@@H](CC4=CC=CC=C34)OCC#CC#CCO[C@@H]5CC6=CC=CC=C6[C@@H]5NC(=O)[C@@H]7CCCN7C(=O)[C@H](C8CCCCC8)NC(=O)[C@H](C)NC)NC [AZD5582] + Nc1nc2[nH]cc(CCc3ccc(C(=O)N[C@@H](CCC(=O)O)C(=O)O)cc3)c2c(=O)[nH]1 [Pemetrexed] (partner 0.2 µM)
# Experiment: as above
# Conditions: first compound 0.001581 µM
# Procedure, shortened: as §1
row,Cell Line,relative viability
1,201T,0.311
2,A-427,0.931
3,BEN,0.663
4,CAL-12T,0.792
5,COR-L23,0.201
6,COR-L 105,1.09
7,ChaGo-K-1,0.243
8,EKVX,0.382
9,EMC-BAC-2,0.417
10,H3255,0.492
